From PMC8962522, “Direct interaction of TrkA/CD44v3 is essential for NGF-promoted aggressiveness of breast cancer cells” (Journal of Experimental & Clinical Cancer Research : CR, 2022)

Test system: MDA-MB-468 cells
Experiment: Transwell invasion assay through collagen I, MDA-MB-468
Assay type: cell-based
Details: collagen 1 Transwell, 16 h after treatment; "these effects" = decrease in basal and NGF-induced invasion
Protocol: Transwell invasion assays were performed to assess cancer cell invasion in a Transwell chamber containing a collagen I-coated membrane (12-wells with inserts and […] pore size membranes; Corning, Life Sciences). A total of 1 × 10^6 starved cells (0.1% in SVF medium) were plated in the top chamber and incubated for 10 min before treatment with a peptide (50 ng/mL for 30 min); NGF was added to the lower chamber. […] and stained with Hoechst 33258 (1 mg/mL) for 30 min, and the cells that invaded the lower surface through the pores of the inserts were automatically counted under an inverted microscope with ImageJ software (with an in-house-developed plug-in).
Supplementary file 13046_2022_2314_MOESM3_ESM.pdf: Additional file 3: Supplementary Figure 1. Validation of the ectopic expression of CD44 and/or TrkA in COS-7 cells. The expression of all CD44 isoforms (A), CD44 variant 3 (B), CD44 variant 6 (C) and TrkA ([…]; D) was evaluated by RT–qPCR (normalized using PUM-1). No expression of CD44, CD44 variants [3 or 6] or TrkA was detected in COS-7 cells (A-D) compared with that in cells transfected with the expression plasmid carrying each protein. […] Quantification of the PLA results was performed using ImageJ software (30 randomly chosen fields per condition of three different experiments). […] CD44v3 and CD44v6 levels at the plasma membrane were assessed by flow cytometry (A-D). […]

## IDDDEDFISST [Peptide 4, mimetic peptide 4 (…) corresponding to the C-terminal region of CD44v3]
  effect on invasion of MDA-MB-468 cells: These effects on invasion were also observed in the MDA-MB-468 triple-negative breast cancer cell line
